We go through eleven compounds from patent US10202351B2, “Pyrazolyl derivatives as pest control agents” (BAYER ANIMAL HEALTH GMBH, priority 2015, dated 2019).

Series [1] has as its system Boophilus microplus. The experiment in a line: Boophilus microplus injection test. Format: in vivo. To be noted: application rate 20 μg/animal, after 7 days, laying of fertile eggs. The method, then: Solvent: dimethyl sulfoxide […] The animals are transferred into dishes and kept in a climate-controlled room. Efficacy is assessed after 7 days by laying of fertile eggs. Eggs which are not visibly fertile are stored in a climate-controlled cabinet until the larvae hatch after about 42 days.

Series [2] has as its system Lucilia cuprina. The experiment in a line: Lucilia cuprina test. The format is in vivo. To be noted: application rate 100 ppm, L1 larvae, kill after 2 days. In outline:
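About 20 L1 larvae were placed in vessels of minced horsemeat containing compound, formulated in dimethyl sulfoxide and diluted with water to the test concentration. Kill (%) was scored after 2 days; 100% means all larvae dead, 0% none.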

In series [3] the test system is Ctenocephalides felis. Description: Ctenocephalides felis oral test. The format is in vivo. To be noted: application rate 100 ppm in citrated cattle blood, kill after 2 days. The source says:
Solvent: dimethyl sulfoxide […] Dilution with citrated cattle blood gives the desired concentration. About 20 unfed adult cat fleas (Ctenocephalides felis) are placed into a chamber which is closed at the top and bottom with gauze. A metal cylinder whose bottom end is closed with parafilm is placed onto the chamber. The cylinder contains the blood/active ingredient formulation, which can be imbibed by the fleas through the parafilm membrane.

Series [4] has as its system Phaedon cochleariae. The experiment in a line: Phaedon cochleariae spray test. Format: in vivo. To be noted: larvae on Chinese cabbage leaf discs, after 7 days. On the procedure:
Solvent: 78.0 parts by weight of acetone • • 1.5 parts by weight of dimethylformamide Emulsifier: alkylaryl polyglycol ether […] To produce further test concentrations, the formulation is diluted with emulsifier-containing water. Discs of Chinese cabbage leaves (Brassica pekinensis) are sprayed with an active ingredient formulation of the desired concentration and, after drying, populated with larvae of the mustard beetle (Phaedon cochleariae).

Series [5] relates to Rhipicephalus sanguineus. The experiment in a line: Rhipicephalus sanguineus in vitro contact test with adult brown dog ticks. The format is in vivo. To be noted: after 48 h, dead or moribund ticks. On the procedure: After the solvent has evaporated off, the tubes are populated with 5-10 adult dog ticks (Rhipicephalus sanguineus), sealed with a perforated plastic lid and incubated in a horizontal position in the dark at room temperature and ambient humidity. After 48 h, efficacy is determined. To this end, the ticks are knocked to the base of the tube and incubated on a hotplate at 45-50° C. for not more than 5 min. Ticks which remain motionless on the base or move in such an uncoordinated manner that they are unable to deliberately avoid the heat by climbing upwards are considered to be dead or moribund.

Series [6] concerns Spodoptera frugiperda. The experiment in a line: Spodoptera frugiperda spray test. The format is in vivo. To be noted: caterpillars on maize leaf discs, after 7 days. On the procedure: Solvent: 78.0 parts by weight of acetone • • 1.5 parts by weight of dimethylformamide Emulsifier: alkylaryl polyglycol ether […] To produce further test concentrations, the formulation is diluted with emulsifier-containing water. Leaf discs of maize (Zea mays) are sprayed with an active compound formulation of the desired concentration and, after drying, populated with caterpillars of the armyworm (Spodoptera frugiperda).

Series [7] in a line: logP determination by HPLC on reversed-phase column (EEC Directive 79/831 Annex V.A8). The format is physicochemical.
Series [8] has as its system Tetranychus urticae. Description: Tetranychus urticae spray test, OP-resistant. To be noted: all stages on bean leaf discs, after 6 days. Format: in vivo. On the procedure: Solvent: 78.0 parts by weight of acetone • • 1.5 parts by weight of dimethylformamide Emulsifier: alkylaryl polyglycol ether […] To produce further test concentrations, the formulation is diluted with emulsifier-containing water. Discs of bean leaves (Phaseolus vulgaris) infested with all stages of the greenhouse red spider mite (Tetranychus urticae) are sprayed with an active ingredient formulation of the desired concentration.

The subject of series [9] is Musca domestica. The experiment in a line: Musca domestica test. The format is in vivo. To be noted: application rate 100 ppm, adult houseflies, kill after 2 days. In outline: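 Compound dissolved in DMSO (10 mg per 0.5 ml), diluted with water to test concentration and applied to a sugar-solution sponge. Vessels held 10 adult houseflies; percent kill scored after 2 days (100% = all dead).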

Series [10] relates to Ctenocephalides felis. Description: Ctenocephalides felis in vitro contact test with adult cat fleas. Format: in vivo. To be noted: application rate 5 μg/cm^2 (500 g/ha), after 48 h, dead or moribund fleas. On the procedure: After the solvent has evaporated off, the tubes are populated with 5-10 adult cat fleas (Ctenocephalides felis), sealed with a perforated plastic lid and incubated in a horizontal position at room temperature and ambient humidity. After 48 h, efficacy is determined. To this end, the tubes are stood upright and the fleas are knocked to the base of the tube. Fleas which remain motionless at the base or move in an uncoordinated manner are considered to be dead or moribund.

For series [11], the system named is cattle ticks (Boophilus microplus) Parkhurst strain, SP-resistant. The experiment in a line: Boophilus microplus dip test. The format is in vivo. To be noted: application rate 100 ppm, after 7 days, laying of fertile eggs. The method, then:
Test animals: cattle ticks (Boophilus microplus) Parkhurst strain, SP-resistant
Solvent: dimethyl sulfoxide
10 mg of active ingredient are dissolved in 0.5 ml of dimethyl sulfoxide. To produce a suitable formulation, the active ingredient solution is diluted with water to the concentration desired in each case.
This active ingredient formulation is pipetted into tubes. 8-10 engorged adult female cattle ticks (Boophilus microplus) are transferred into a further tube with holes. The tube is immersed into the active ingredient formulation, and all the ticks are completely wetted. After the liquid has run out, the ticks are transferred on filter disks into plastic dishes and stored in a climate-controlled room.
Efficacy is assessed after 7 days by laying of fertile eggs. Eggs which are not visibly fertile are stored in a climate-controlled cabinet until the larvae hatch after about 42 days. An efficacy of 100% means that none of the ticks has laid any fertile eggs; 0% means that all the eggs are fertile.

[12] abbreviates: application rate 5 μg/cm^2 (500 g/ha).
The mark [13] stands for this setting: Table 1, HPLC C18, acetonitrile/water with formic acid.

As to `Cc1cc(C(F)(C(F)(F)F)C(F)(F)F)cc(C)c1-n1cc(-c2ccc(Cl)c(NC(=O)c3ccc(F)cc3)c2)cn1` [Example 4, N-[2-chloro-5-[1-[2,6-dimethyl-4-[1,2,2,2-tetrafluoro-1-(trifluoromethyl)ethyl]phenyl]pyrazol-4-yl]phenyl]-4-fluorobenzamide], the efficacy in series [1], in [2], in series [3], in series [4] (application rate 500 g/ha), in series [5] (setting [12]) and in [6] (application rate 100 g/ha) was 100% in each case. The efficacy is reported as 100% in series [6] (application rate 500 g/ha), 100% in series [8] (application rate 100 g/ha) and 90% in [8] (application rate 500 g/ha). Moreover, the lgP result in series [7] (setting [13]) is on record as “lgP 5.57”; in [7] (synthesis example), 5.57.

In the case of `Cc1cc(C(F)(C(F)(F)F)C(F)(F)F)cc(C)c1-n1cc(-c2ccc(F)c(NC(=O)c3ccncn3)c2)cn1` [Example 16], the efficacy is 100% in [1]; 95% in [2]; 100% in series [3]; 100% in series [4] (application rate 100 g/ha); 80% in [5] (setting [12]); 100% in series [6] (application rate 100 g/ha). The compound further gave an efficacy in [9] of 100%. In addition, the lgP result in series [7] (setting [13]) was “lgP 5.04”.

As to `O=C(Nc1ccc(F)c(-c2cnn(-c3c(Br)cc(C(F)(C(F)(F)F)C(F)(F)F)cc3C(F)(F)F)c2)c1)c1cocn1` [Example 2-14], the efficacy is 100% in series [1]; 90% in series [2]; 100% in series [3]; 100% in series [4] (application rate 100 g/ha); 80% in [5] (setting [12]); 100% in series [6] (application rate 100 g/ha). Moreover, the efficacy in series [9] is reported as 90%; in series [10], 100%.

Regarding `Cc1cc(C(F)(C(F)(F)F)C(F)(F)F)cc(C(F)(F)F)c1-n1cc(-c2ccc(F)c(NC(=O)c3ccsc3)c2)cn1` [Example 31], the efficacy in series [11] worked out at 90%; in [1] it was 100%; in series [2], 100%; in [3] it was 100%; in series [4] (application rate 100 g/ha), 100%; in series [6] (application rate 100 g/ha), 100%. Also, the efficacy in series [9] and in [8] (application rate 100 g/ha) was 100% throughout.

As for `Cc1cc(C(F)(C(F)(F)F)C(F)(F)F)cc(C(F)(F)F)c1-n1cc(-c2ccc(F)c(NC(=O)c3ccc(C#N)cc3)c2)cn1` [Example 33], the efficacy is on record as 100% in series [1]; 100% in [2]; 100% in series [3]; 100% in series [4] (application rate 100 g/ha); 80% in series [5] (setting [12]); 100% in series [6] (application rate 100 g/ha). Also, the efficacy in series [9] was determined as 90%; in series [8] (application rate 100 g/ha) it was 90%; in series [10], 100%.

For `Cc1cc(C(F)(C(F)(F)F)C(F)(F)F)cc(C)c1-n1cc(-c2ccc(F)c(NC(=O)c3ccncc3)c2)cn1` [Example 6], the efficacy in series [1], in series [2], in [3], in [4] (application rate 100 g/ha), in series [5] (application rate 1 μg/cm^2 (100 g/ha)) and in series [6] (application rate 100 g/ha) was 100% each time. Further, the efficacy in series [9], in series [8] (application rate 100 g/ha) and in series [10] was 100% throughout. For the same compound, the lgP result in series [7] (setting [13]) is “lgP 4.04”.

For the compound `Cc1cc(C(F)(C(F)(F)F)C(F)(F)F)cc(C)c1-n1cc(-c2cnc(Cl)c(NC(=O)c3ccc(F)cc3)c2)cn1` [Example 11], the efficacy in series [1] was 100%; in series [2], 100%; in [3], 100%; in series [4] (application rate 100 g/ha), 100%; in series [5] (setting [12]), 80%; in series [6] (application rate 100 g/ha), 100%. Further, the figures for the efficacy in series [9] and in series [8] (application rate 100 g/ha) were 100% and 90%, respectively. Besides, the lgP result in [7] (setting [13]) is “lgP 5.14”.

Take `Cc1cc(C(F)(C(F)(F)F)C(F)(F)F)cc(C)c1-n1cc(-c2ccc(F)c(NC(=O)c3ccc(F)cc3)c2F)cn1` [Example 7]: the efficacy in series [1] is given as 100%; in [2], 80%; in series [4] (application rate 100 g/ha), 100%; in series [5] (setting [12]) it was 80%; in series [6] (application rate 100 g/ha), 83%; in series [8] (application rate 100 g/ha), 100%. Moreover, in series [10], the efficacy is given as 100%. Further, in series [7] (setting [13]), the lgP result was “lgP 4.84”.

Turning to `Cc1cc(C(F)(C(F)(F)F)C(F)(F)F)cc(C)c1-n1cc(-c2ccc(F)c(NC(=O)c3ccc(F)cc3)c2)cn1` [Example 5], the efficacy in series [1] was 100%; in [2], 100%; in series [3] it was 90%; in series [4] (application rate 500 g/ha), 100%; in series [5] (setting [12]), 80%; in [6] (application rate 100 g/ha), 100%. In addition, the efficacy in series [6] (application rate 500 g/ha) was found to be 100%; in series [9], 80%; in series [8] (application rate 100 g/ha), 100%; in series [8] (application rate 500 g/ha), 100%. The lgP entry in [7] (setting [13]) is reported as “lgP 5.07”.

For the compound `Cc1cc(C(F)(C(F)(F)F)C(F)(F)F)cc(C(F)(F)F)c1-n1cc(-c2ccc(F)c(NC(=O)c3ccncc3)c2)cn1` [Example 50], the efficacy in [1] came out at 100%; in series [2] it was 100%; in series [3], 100%; in [4] (application rate 100 g/ha), 100%; in series [5] (setting [12]) it was 80%; in series [6] (application rate 100 g/ha), 100%. The efficacy in series [9], in series [8] (application rate 100 g/ha) and in series [10] was 100% throughout.

Take `Cc1cc(C(F)(C(F)(F)F)C(F)(F)F)cc(C)c1-n1cc(-c2cnc(Cl)c(NC(=O)c3ccncc3)c2)cn1` [Example 12]: the efficacy amounted to 100% in series [1]; 90% in series [2]; 100% in series [3]; 100% in [4] (application rate 100 g/ha); 80% in series [5] (setting [12]); 100% in [6] (application rate 100 g/ha). For the same compound, the efficacy in [9], in series [8] (application rate 100 g/ha) and in series [10] was 100% each time. In addition, the lgP result in series [7] (setting [13]) was “lgP 3.97”.
